Columns and labels:
participants with SSc-RP [1] = assay: SHAQ - Visual Analog Scale - Raynaud's; assay type: in vivo, human; parameters: SHAQ Visual Analogue Scale - Raynaud's, In-Clinic Visit (Day 12), Mean / SHAQ Visual Analogue Scale - Raynaud's, In-Clinic Visit (Day 12), Median / SHAQ Visual Analogue Scale - Raynaud's: In-Clinic Visit (Day 12), Median: scale not given here; settings: for % change VAS Raynauds: SHAQ, mITT Part A
Source text: The SHAQ includes a Raynaud's VAS, which will be reported at screening and each in-clinic visit. The absolute change in Raynaud-VAS, assessed by the participants response to the SHAQ question ‘In the past 7 days, how much have your Raynaud's interfered with your daily activities?’ at baseline and the end of each dosing period will be calculated similar to frequency data as before.
The standard, validated, patient reported outcome measures tool for SSc patients, the SHAQ, was collected at the time points specified in the study schedules (FIG. 2 and FIGS. 4A and 4B) to assess the participant's quality of life. The SHAQ included a Raynaud's VAS that will also be reported separately.

participants with SSc-RP [2] = assay: Average pain score recorded during weekly RP attacks (11-point Likert scale); assay type: in vivo, human; settings: for Average Pain Score Change From Baseline [Mean (SD)]: Table G
Source text: The absolute change in average pain score (11-point Likert scale) of weekly RP attacks from baseline to the end of each Dosing Period will be a secondary outcome variable. The sponsor-developed participant-informed diary will be used to record data. The average pain score of weekly RP attacks is defined as the total pain scores divided by total number of RP attacks within the last 7 days of each dosing period. Average of the last 7 days of screening assessments will be used as baseline for the analysis of all periods. The variable will be calculated similar to frequency data as before.

[3] = Any Cilnidipine (N = 17), Day 12, PP Population, Part A
[4] = Cilnidipine 20 mg (N = 4), Day 12, PP Population, Part A
[5] = Pooled Cilnidipine 10 mg and Cilnidipine 10 mg + Tadalafil 5 mg (N = 9), Day 12, PP Population, Part A
[6] = Pooled Cilnidipine 20 mg and Cilnidipine 20 mg + Tadalafil 5 mg (N = 7), Modified ITT Population - Part A
[7] = Pooled Cilnidipine (N = 8), Day 12, PP Population, Part A
[8] = cilnidipine 10 mg (combination: + tadalafil 5 mg)
[9] = cilnidipine 20 mg (combination: + tadalafil 5 mg)

COCCOC(=O)C1=C(C)NC(C)=C(C(=O)OC/C=C/c2ccccc2)C1c1cccc([N+](=O)[O-])c1 (stereo not drawn) [Cilnidipine]
SHAQ Visual Analogue Scale - Raynaud's, Change from Baseline, Median (participants with SSc-RP [1]; [3]): −0.300
SHAQ Visual Analogue Scale - Raynaud's, In-Clinic Visit (Day 12), Mean (SD) (participants with SSc-RP [1]; [3]): 2.022 (1.8357)
SHAQ Visual Analogue Scale - Raynaud's, In-Clinic Visit (Day 12), Median (participants with SSc-RP [1]; [3]): 1.400
SHAQ Visual Analogue Scale - Raynaud's, Percent Change from Baseline, Mean (SD) (participants with SSc-RP [1]; [3]): −20.44 (55.098) %
SHAQ Visual Analogue Scale - Raynaud's, Percent Change from Baseline, Median (participants with SSc-RP [1]; [3]): −33.33%
SHAQ Visual Analogue Scale - Raynaud's, Change from Baseline, Median (participants with SSc-RP [1]; Cilnidipine 10 mg (N = 4), Day 12, PP Population, Part A): 0.350
SHAQ Visual Analogue Scale - Raynaud's, Change from Baseline, Mean (participants with SSc-RP [1]; [4]): −1.200
SHAQ Visual Analogue Scale - Raynaud's, In-Clinic Visit (Day 12), Median (participants with SSc-RP [1]; [4]): 1.250
% change VAS Raynauds (participants with SSc-RP [1]; Cilnidipine 20 mg (n = 3)): −49%
SHAQ Visual Analogue Scale - Raynaud's, Percent Change from Baseline, Median (participants with SSc-RP [1]; Cilnidipine 20 mg, Day 12 vs Baseline, PP Population Part A, sensitivity analysis): −38.67%
SHAQ Visual Analogue Scale - Raynaud's, Change from Baseline, Mean (participants with SSc-RP [1]; [5]): −0.414
SHAQ Visual Analogue Scale - Raynaud's, Change from Baseline, Median (participants with SSc-RP [1]; [5]): −0.100
SHAQ Visual Analogue Scale - Raynaud's, In-Clinic Visit (Day 12), Median (participants with SSc-RP [1]; [5]): 2.600
SHAQ Visual Analogue Scale - Raynaud's, Percent Change from Baseline, Mean (participants with SSc-RP [1]; [5]): −9.97%
SHAQ Visual Analogue Scale - Raynaud's, Percent Change from Baseline, Median (participants with SSc-RP [1]; [5]): −4.39%
SHAQ Visual Analogue Scale - Raynaud's, Change from Baseline, Median (participants with SSc-RP [1]; Pooled Cilnidipine 20 mg and Cilnidipine 20 mg + Tadalafil 5 mg (N = 7), Day 12, Modified ITT Population - Part A): −0.300
SHAQ Visual Analogue Scale - Raynaud's, In-Clinic Visit (Day 12), Mean (participants with SSc-RP [1]; [6]): 1.300
SHAQ Visual Analogue Scale - Raynaud's, In-Clinic Visit (Day 12), Median (participants with SSc-RP [1]; [6]): 0.600
SHAQ Visual Analogue Scale - Raynaud's, In-Clinic Visit (Day 12), Median (participants with SSc-RP [1]; Pooled Cilnidipine 20 mg and Cilnidipine 20 mg + Tadalafil 5 mg (N = 8), Day 12, PP Population, Part A): 0.850
SHAQ Visual Analogue Scale - Raynaud's, Change from Baseline, Mean (SD) (participants with SSc-RP [1]; [7]): −0.438 (1.2094)
SHAQ Visual Analogue Scale - Raynaud's, In-Clinic Visit (Day 12), Mean (participants with SSc-RP [1]; [7]): 1.900
SHAQ Visual Analogue Scale - Raynaud's, In-Clinic Visit (Day 12), Mean (SD) (participants with SSc-RP [1]; [7]): 1.900 (1.6861)
SHAQ Visual Analogue Scale - Raynaud's, Percent Change from Baseline, Mean (SD) (participants with SSc-RP [1]; [7]): −18.62 (75.571) %
% change VAS Raynauds (participants with SSc-RP [1]; Pooled Cilnidipine (n = 7)): −17%
SHAQ Visual Analogue Scale - Raynaud's: Change from Baseline, Median (participants with SSc-RP [1]; Sensitivity Analysis (diagnosis of SSc), Modified ITT, Part A, Day 12, Any Cilnidipine (N = 14)): −0.300
SHAQ Visual Analogue Scale - Raynaud's: Percent Change from Baseline, Mean (participants with SSc-RP [1]; Sensitivity Analysis (diagnosis of SSc), Modified ITT, Part A, Day 12, Pooled Cilnidipine (N = 6)): −18.64%
SHAQ Visual Analogue Scale - Raynaud's: In-Clinic Visit (Day 12), Median (participants with SSc-RP [1]; Sensitivity Analysis (diagnosis of SSc), Modified ITT, Part A, Day 12, arms Cilnidipine 10 mg, Tadalafil 5 mg, Cilnidipine 10 mg + Tadalafil 5 mg): 2.600
SHAQ Visual Analogue Scale - Raynaud's: In-Clinic Visit (Day 12), Median (participants with SSc-RP [1]; Sensitivity Analysis (diagnosis of SSc), Modified ITT, Part A, Day 12, arms Cilnidipine 20 mg, Cilnidipine 20 mg + Tadalafil 5 mg): 1.100
VAS Raynaud's Change from Baseline Max (participants with SSc-RP [1]; [8]): 1.50
VAS Raynaud's Change from Baseline Median (participants with SSc-RP [1]; [8]): 0.350
VAS Raynaud's Change from Baseline Min (participants with SSc-RP [1]; [8]): −0.90
VAS Raynaud's Change from Baseline Q1 (participants with SSc-RP [1]; [8]): −0.500
VAS Raynaud's Change from Baseline Q3 (participants with SSc-RP [1]; [8]): 1.150
VAS Raynaud's Day 12 Max (participants with SSc-RP [1]; [8]): 4.30
VAS Raynaud's Day 12 Median (participants with SSc-RP [1]; [8]): 1.700
VAS Raynaud's Day 12 Min (participants with SSc-RP [1]; [8]): 0.00
VAS Raynaud's Day 12 Q1 (participants with SSc-RP [1]; [8]): 0.400
VAS Raynaud's Day 12 Q3 (participants with SSc-RP [1]; [8]): 3.450
VAS Raynaud's Percent Change from Baseline Max (participants with SSc-RP [1]; [8]): 136.4%
VAS Raynaud's Percent Change from Baseline Mean (participants with SSc-RP [1]; [8]): 11.36%
VAS Raynaud's Percent Change from Baseline Median (participants with SSc-RP [1]; [8]): −2.27%
VAS Raynaud's Percent Change from Baseline Min (participants with SSc-RP [1]; [8]): −100.0%
VAS Raynaud's Percent Change from Baseline Q1 (participants with SSc-RP [1]; [8]): −100.00%
VAS Raynaud's Change from Baseline Max (participants with SSc-RP [1]; [9]): −0.30
VAS Raynaud's Change from Baseline Mean (participants with SSc-RP [1]; [9]): −1.267
VAS Raynaud's Change from Baseline Median (participants with SSc-RP [1]; [9]): −1.100
VAS Raynaud's Change from Baseline Min (participants with SSc-RP [1]; [9]): −2.40
VAS Raynaud's Change from Baseline Q1 (participants with SSc-RP [1]; [9]): −2.400
VAS Raynaud's Change from Baseline Q3 (participants with SSc-RP [1]; [9]): −0.300
VAS Raynaud's Day 12 Max (participants with SSc-RP [1]; [9]): 1.40
VAS Raynaud's Day 12 Median (participants with SSc-RP [1]; [9]): 1.100
VAS Raynaud's Day 12 Min (participants with SSc-RP [1]; [9]): 0.60
VAS Raynaud's Day 12 Q1 (participants with SSc-RP [1]; [9]): 0.600
VAS Raynaud's Day 12 Q3 (participants with SSc-RP [1]; [9]): 1.400
VAS Raynaud's Percent Change from Baseline Mean (participants with SSc-RP [1]; [9]): −48.63%
VAS Raynaud's Percent Change from Baseline Median (participants with SSc-RP [1]; [9]): −44.00%
VAS Raynaud's Percent Change from Baseline Min (participants with SSc-RP [1]; [9]): −68.6%
VAS Raynaud's Percent Change from Baseline Q1 (participants with SSc-RP [1]; [9]): −68.57%
VAS Raynaud's Percent Change from Baseline Q3 (participants with SSc-RP [1]; [9]): −33.33%
Average Pain Score Change From Baseline [Mean (SD)] (participants with SSc-RP [2]; Cilnidipine 10 mg (n = 4)): 0.47
Average Raynaud's Pain (change) (participants with SSc-RP [2]; Cilnidipine 20 mg (n = 3)): 12%
Average Pain Score Change From Baseline [Mean (SD)] (participants with SSc-RP [2]; Cilnidipine 20 mg (n = 3)): −0.47
Average Raynaud's Pain (change) (participants with SSc-RP [2]; Pooled Cilnidipine (n = 7)): −27%
